Results as given in patent US7230033B2, “Pest control compositions and methods for their use” (United States of America as represented by the Secretary of …, priority 2000, dated 2007).

Tests used:
[1] = tested on: adult Xenopsylla cheopis fleas; assay: Treated-vial biocidal screening with 2% acetone solutions (Example 2), adult fleas, residual; assay type: in vivo; conditions: treated vials sat 5 wk; arthropods added for the final 24 h
Protocol: (§1) Samples of the compounds listed below were obtained as described in Example 1, and screened for biocidal activities against nymphal Ixodes scapularis. In this example, 2% acetone solutions (wt/vol) of the compounds were applied to inner surfaces of 2-dram friction cap vials. Vials and caps were treated then allowed to dry for a minimum of 4 hours before placing 10 nymphs in each container. These same vials were used to challenge additional nymphs and adult I. scapularis ticks and adult Xenopsylla cheopis fleas through five weeks to observe any possible residual activity.
(§2) Numbers in parentheses refer to length of treatment in terms of hours (h) or weeks (wk). Data is presented in terms of number killed/number tested. For test periods longer than 24 hours, the treated vials were allowed to sit for the stated period after drying (72 h, 4 wk, or 5 wk) and each group of arthropods was added to the vials for the final 24 h of the test period.

[2] = tested on: nymphal Ixodes scapularis; assay: Treated-vial biocidal screening with 2% acetone solutions (Example 2), tick nymphs; assay type: in vivo; conditions: treated vials sat 72 h; arthropods added for the final 24 h
Protocol: as §1, §2

[3] = tested on: adult I. scapularis ticks; assay: Treated-vial biocidal screening with 2% acetone solutions (Example 2), adult ticks, residual; assay type: in vivo, Ixodes scapularis; conditions: treated vials sat 4 wk; arthropods added for the final 24 h
Protocol: as §1, §2

Ae. aegypti adults = assay: Adult mosquito bottle bioassay; assay type: in vivo, Aedes aegypti; conditions: for Slope: probit; for LC50 (15 min) / LC50 (24 h) / LC90 (15 min) / LC90 (24 h): Aedes aegypti adult mosquitoes, alone, or 1:1 with carvacrol (in parenthesis)
Protocol: (§3) Adult mosquitoes were tested using the bottle bioassay method of Brogden and McAllister (J. Am. Mosq. Control Assoc., 14:159–64, 1998) with minor modifications. Natural product extracts were two-fold serially diluted for a total of 8 concentrations ranging from 0.002% to 0.25% in 1.5 ml of acetone. Individual dilutions were added to 250 ml Wheaton glass bottles and capped. Bottles were manipulated to evenly coat all inner surfaces. The caps were removed and bottles were allowed to air-dry overnight. Once bottles were completely dry, 10–50 (in some tests 25–50) adult mosquitoes were aspirated into the bottles. Mosquitoes were held in the bottles for 24 h at 23° C. and 85% RH. Morbidity and mortality were recorded at 15, 30, 45, and 60 min and 24 hour intervals. One bottle for each replicate was treated with acetone only and served as a control. The dose-mortality data was evaluated with probit analysis, using the LdP Line software, to determine LC50 and LC90 values.
Carvacrol was combined with compound 7, 9, or 10 at a 1:1 ratio (7.5 μl of carvacrol:7.5 μl of compound 7, 9, or 10 was added to 2,985 μl of acetone for a 0.5% solution, from which serial dilutions were made), and tested as previously described against nymphal ticks and adult and larval mosquitoes.

[4] = tested on: Ixodes scapularis nymphal ticks; assay: Tick repellency bioassay; assay type: in vivo
Description: One-hundred (100) μl of test compound was pipetted onto a cotton-tipped applicator mounted to the bottom center of a 1 dram glass shell vial using non-toxic modeling clay. A total of 8 concentrations were screened with doses ranging from 0.04–5.0%. Applicators treated with acetone only served as controls. A line was drawn around the perimeter of the vial immediate to the base of the treated cotton portion of the applicator. The area above the line was designated the “repellent zone”. The vial was allowed to air-dry 1 h before a single tick was introduced. Vials were covered with a single piece of mesh and fitted with a hollowed-out plastic cap to cover the opening of the vial; this prevented the tick from escaping but allowed for air exchange. Vials were breathed upon by investigators at 1 min intervals and a hand was placed over the test vials to provide stimuli for ticks to pass into the repellent zone. […] If the tick crossed over and remained in the “repellent zone” for ≧5 sec, the tick was deemed non-repelled by the test compound. Each test was replicated 10 times using a new tick for each test. Repellent activity was determined at 1, 2, 3, and 4 h after treatment. Probit analysis was used to determine repellent efficacy (RD50 and RD95).

[5] = tested on: ticks, fleas, and mosquitoes; assay: Residual activity, general statements (Examples 9, 17); assay type: in vivo; conditions: ticks
I. scapularis nymphs = assay: Tick bioassay, treated 2-dram vials, probit analysis; assay type: in vivo, Ixodes scapularis; conditions: for Slope: probit; for LC50 (1 h) / LC50 (24 h) / LC90 (1 hr) / LC90 (24 h): Ixodes scapularis nymphal ticks, alone, or 1:1 with carvacrol (in parenthesis)
Description: A control treated with acetone only was run with each series.
For each time point, if ticks and fleas were incapable of movement, maintaining normal posture, leg coordination, ability to right themselves, or any signs of life, they were considered moribund or dead.

Aedes aegypti adults = assay: Residual activity, aged treated bottles, mosquitoes; assay type: in vivo
Protocol: as §3

[6] = tested on: Xenopsylla cheopis adults; assay: Residual activity, aged treated vials, fleas; assay type: in vivo
Protocol: (§4) Briefly, groups of 10 nymphal I. scapularis and X. cheopis fleas were used in all tests (more than a total of 5,240 nymphs and 4,860 fleas were exposed to the compounds). The inner surface of 2-dram friction cap vials were treated with the compound/acetone solution, or acetone only as a control, and left to air-dry overnight (see also, Panella et al., J. Med. Entomol., 42(3):352-358, 2005. Three to 4 holes were made in the plastic cap to allow for air exchange. Nymphal ticks and adult fleas were then placed directly into the vials using forceps. Vials containing ticks or fleas were placed in desiccators for 24 h at 21° C. and 90% RH. Morbidity and mortality was recorded at 1, 2, 4, 8, and 24 h after initial exposure.

[7] = tested on: fourth-instar Aedes aegypti larvae; assay: Larval mosquito bioassay; assay type: in vivo; conditions: Aedes aegypti larval mosquitoes, concentration of the 1 ml added to 150 ml water
Protocol: Individual groups of 10 fourth-instar Aedes aegypti larvae were contained in 150 ml of water and exposed to […] of essential oils prepared by 2-fold serial dilutions ranging from 0.06%–5.0% in 1 ml of acetone. A control group of larvae were exposed to 1 ml of acetone only.
It is important to note that larval mosquitoes are tested in their natural environment, i.e., in water. The particular assays used herein involved groups of 10 larval mosquitoes in 150 ml of water. The weight percentages reported for lethal concentration for larval mosquitoes are the weight percentages added to the 150 ml water (as opposed to the final percentage of the tested compound(s) in the 150 ml water). As one of skill in the art will appreciate, test compound(s) added to a volume of water (such as, 150 ml) can be dramatically diluted depending upon the water solubility of the tested compound. […] If the tested compound is an oil (such as, carvacrol, nootkatone, or 13-hydroxy-valencene), it most likely floats on the surface of the water.

Ixodes scapularis nymphs = assay: Residual activity, aged treated vials, ticks; assay type: in vivo; conditions: for LC90, residual activity: NE = not effective
Protocol: as §4

X. cheopis adults = assay: Flea bioassay, treated 2-dram vials, probit analysis; assay type: in vivo, Xenopsylla cheopis; conditions: 24 h exposure; for Slope: probit
Protocol: Med. […] A control treated with acetone only was run with each series. Tick and flea susceptibility was evaluated using a modification of the disposable pipette method of Barnard et al. (J. Econ. Entomol., 74:466-69, 1981) and Maupin and […]. Med. […] The inner surface of 2-dram friction cap vials were treated with the compound/acetone solution, or acetone only as a control, and left to air-dry overnight (see also, […] et al., J. Med. […] Three to 4 holes were made in the plastic cap to allow for air exchange. Nymphal ticks and adult fleas were then placed directly into the vials using forceps. […] For each time point, if ticks and fleas were incapable of movement, maintaining normal posture, leg coordination, ability to right themselves, or any signs of life, they were considered moribund or dead.

[8] = 1 h after compound applied to applicator, listed as Nootkatone (Compound 9)
[9] = 4 h after compound applied to applicator, listed as Nootkatone (Compound 9)
[10] = 24 h exposure, NE = not effective at concentrations tested
[11] = 2 weeks after treatment, NE = not effective
[12] = 1 h after compound applied to applicator
[13] = 4 h after compound applied to applicator

| Structure (SMILES) | Slope (Ae. aegypti adults; 24 h exposure) | residual activity [5] | Slope (I. scapularis nymphs; 24 h exposure) | LC50 (1 h) (I. scapularis nymphs) | LC50 (24 h) (I. scapularis nymphs) | LC90 (1 hr) (I. scapularis nymphs) | LC90 (24 h) (I. scapularis nymphs) | LC90, residual activity (Aedes aegypti adults; 1 week after treatment) | Slope, residual activity (Aedes aegypti adults; 1 week after treatment) | Slope, residual activity (Aedes aegypti adults; 2 weeks after treatment) | LC90, residual activity (Aedes aegypti adults; [11]) | Slope, residual activity (Aedes aegypti adults; 4 weeks after treatment) | Slope, residual activity ([6]; 1 week after treatment) | Slope, residual activity ([6]; 2 weeks after treatment) | LC50 (1 h) [7] | LC50 (24 h) [7] | LC90 (1 hr) [7] | LC90 (24 h) [7] | Slope, residual activity (Ixodes scapularis nymphs; 1 week after treatment) | LC90, residual activity (Ixodes scapularis nymphs; 1 week after treatment) | also measured |
| --- | --- | --- | --- | --- | --- | --- | --- | --- | --- | --- | --- | --- | --- | --- | --- | --- | --- | --- | --- | --- | --- |
| CC(C)=CCc1ccc(O)c(=O)cc1C(C)C [Compound 11, Nootkatin] | 1.327 | – | – | – | – | – | – | – | – | – | – | – | – | – | – | – | – | – | – | – | X. cheopis adults (5 wk), number killed/number tested [1]: 0/5; I. scapularis nymphs (72 h), number killed/number tested [2]: 0/5; I. scapularis adults (4 wk), number killed/number tested [3]: 0/5 |
| C=C(C)[C@@H]1CCC2=CC(=O)C[C@@H](C)[C@]2(C)C1 [Compound 9, Nootkatone] | 2.845 | considerable biological activity through the four week time period | 3.061 | 0.016 % (wt:vol) | 0.0033 % (wt:vol) | 0.331 % (wt:vol) | 0.0087 % (wt:vol) | 0.018 percent concentration, wt:vol | 4.336 | 4.014 | 0.0088 percent concentration, wt:vol | 4.169 | 1.633 | 2.571 | 6.51 % (wt:vol) | 1.574 % (wt:vol) | 22.644 % (wt:vol) | 2.757 % (wt:vol) | 1.304 | 0.08 percent concentration, wt:vol | Slope (±SEM) ([4]; 1 h, listed as Nootkatone (Compound 9)): 1.326 (±0.345); RD50 [4, 8]: 0.101 % (wt:vol); RD95 [4, 8]: 1.758 % (wt:vol); Slope (±SEM) ([4]; 4 h, listed as Nootkatone (Compound 9)): 1.406 (±0.299); RD50 [4, 9]: 0.173 % (wt:vol); RD95 [4, 9]: 2.561 % (wt:vol); LC90 (I. scapularis nymphs; [10]): 0.0087 percent concentration, wt:vol; LC50 (1 h) (I. scapularis nymphs; listed as compound 9): 0.016 % (wt:vol); Slope, residual activity ([6]; 4 weeks after treatment): 3.135; Slope, residual activity (Ixodes scapularis nymphs; 2 weeks after treatment): 2.649; LC90, residual activity (Ixodes scapularis nymphs; 2 weeks after treatment): 0.027 percent concentration, wt:vol; LC90 (X. cheopis adults; NE = not effective at concentrations tested): 0.018 percent concentration, wt:vol; Slope (X. cheopis adults): 2.9; LC90 (Ae. aegypti adults; [10]): 0.021 percent concentration, wt:vol; LC50 (15 min) (Ae. aegypti adults): 0.136 % (wt:vol); LC50 (24 h) (Ae. aegypti adults): 0.0075 % (wt:vol); LC90 (15 min) (Ae. aegypti adults): 0.453 % (wt:vol); LC90 (24 h) (Ae. aegypti adults): 0.021 % (wt:vol) |
| C=C(CO)C1CCC2=CCC[C@@H](C)[C@]2(C)C1 (stereo partly drawn) [Compound 10, 13-hydroxy-valencene] | 2.094 | considerable biological activity through the four week time period | 2.562 | 0.017 % (wt:vol) | 0.0054 % (wt:vol) | 0.065 % (wt:vol) | 0.014 % (wt:vol) | 0.058 percent concentration, wt:vol | 3.286 | 6.932 | 0.021 percent concentration, wt:vol | 2.645 | 2.218 | 2.442 | 5.132 % (wt:vol) | 0.975 % (wt:vol) | 13.425 % (wt:vol) | 1.23 % (wt:vol) | 3.005 | 0.019 percent concentration, wt:vol | Slope (±SEM) ([4]; 1 h): 1.332 (±0.313); RD50 [4, 12]: 0.095 % (wt:vol); RD95 [4, 12]: 1.637 % (wt:vol); Slope (±SEM) ([4]; 4 h): 1.066 (±0.307); RD50 [4, 13]: 0.114 % (wt:vol); RD95 [4, 13]: 3.993 % (wt:vol); LC90, residual activity (Aedes aegypti adults; 4 weeks after treatment, NE = not effective): 0.04 percent concentration, wt:vol; LC50 (24 h) ([7]; listed as 13-hydroxy-valencene): 1.23 % (wt:vol); Slope, residual activity (Ixodes scapularis nymphs; 2 weeks after treatment): 1.781; LC90, residual activity (Ixodes scapularis nymphs; 2 weeks after treatment): 0.044 percent concentration, wt:vol; Slope, residual activity (Ixodes scapularis nymphs; 4 weeks after treatment): 1.285; Slope (X. cheopis adults): 3.143; LC50 (15 min) (Ae. aegypti adults): 0.077 % (wt:vol); LC50 (24 h) (Ae. aegypti adults): 0.0034 % (wt:vol); LC90 (15 min) (Ae. aegypti adults): 0.373 % (wt:vol); LC90 (24 h) (Ae. aegypti adults): 0.014 % (wt:vol) |
